Test results from US20260137662A1, “CD11B AGONISTS FOR TREATMENT OF AUTOIMMUNE DISEASE” (Rush University Medical Center, priority 2022, published 2026).

Experiments:
[1] = tested on: TLR-stimulation dependent pro-inflammatory pathways; assay: suPAR and TNFa secretion from myeloid (RAW) cells stimulated with TLR-stimulants or PMA (ELISA); assay type: cell-based, murine; settings: co-treatment TLR-stimulant (LPS, PMA, Pam2CSK4, Pam3CSK4, IMQ) and LA1 (20 uM), 4 hours
Method: (§1) FIG. 2A illustrates the levels of biomarker suPAR secretion from RAW cells after treatment with LPS (50ng/ml), PMA (0.1 ug/mL), Pam2CSK4 (0.1 ug/mL), Pam3CSK4 (0.1 ug/mL), Imiquimod (IMQ) (20 ug/mL), LA1 (20 uM), or co-treatments. Bars show mean with SD (N=3) (*P<0.05, **P<0.01, ***P<0.001, ****P<0.0001).
as §1, with “2B” for “2A”, “biomarker (A)” for “biomarker”, “suPAR and (B) TNF-a” for “suPAR”
The effect of LA1 on TLR-stimulation dependent pro-inflammatory pathways was studied by stimulating myeloid cells with different TLR-stimulants (lipopolysaccharide (LPS), Pam2CSK 4, imiquimod (IMQ)) or with phorbol 12-myristate 13-acetate (PMA) and co-treating with LA1. The levels of suPAR (pg/mL) and TNFa (pg/mL) in cell supernatant were measured 4 hours after treatment using ELISA. […] Relative gene expression was also assessed in myeloid cells treated with Poly(I:C), a known toll-like receptor (TLR) agonist, and co-treated with LA1.

[2] = tested on: BMDMs from C57BL/6 mice expressing CD11b with a point mutation (KI); assay: Biomarker secretion from IMQ-treated bone marrow derived macrophages of CD11b KI mice; assay type: cell-based; settings: KI cells (genetically activated CD11b), IMQ (20 ug/mL) and LA1 (20 uM) co-treatment, 4 hours
Method: (§2) FIG. 7A illustrates levels of biomarker IL-6 secretion in bone marrow derived macrophages (BMDMs) from C57BL/6 wild type (WT) mice, mice with global deletion of CD11b (KO), or C57BL/6 mice expressing CD11b with a point mutation (KI), the macrophages treated for 4 hours with vehicle DMSO (UT), LA1 (20 uM), IMQ (20 ug/mL), or IMQ and LA1 co-treatment. Bars show mean with SD (N=3) (*P<0.05, **P<0.01, ***P<0.001, ****P<0.0001).
as §2, with “7B” for “7A”, “IL-1b” for “IL-6”
as §2, with “7C” for “7A”, “suPAR” for “IL-6”
as §2, with “7D” for “7A”, “IFNb” for “IL-6”
Bone marrow derived macrophages (BMDMs) from C57BL/6 wild type mice (WT), mice with global deletion of CD11b (KO), and C57BL/6 mice expressing CD11b with a point mutation (KI), as described previously (Martinez et al., 2020) were used to evaluate the effect of pharmacologic activation of CD11b by LA1 or genetic activation of CD11b on TLR-pathway dependent biomarkers. BMDMs from WT, KO, and KI mice were left untreated, treated with LA1, treated with IMQ, or co-treated with LA1 and IMQ and levels of biomarkers IL-1b, suPAR, IL-6 and IFN-b were measured 4 hours after treatment.

## O=C(O)c1ccc(-c2ccc(/C=C3\SC(=S)N(Cc4ccccc4)C3=O)o2)cc1 [LA1, (Z)-4-(5-((3-benzyl-4-oxo-2-thioxothiazolidin-5-ylidene)methyl)furan-2-yl)benzoic acid]
[1]
  levels of biomarker TNFa in cell supernatant: significantly reduced
  levels of biomarker suPAR in cell supernatant: significantly reduced
[2]
  level of IFN-b in cell supernatant: did not change basal levels
  level of IL-1b in cell supernatant: did not change basal levels
  level of IL-6 in cell supernatant: did not change basal levels
  level of suPAR in cell supernatant: did not change basal levels
